The text below walks through data of ChEMBL document CHEMBL5620375, “Tetrahydrobenzo[h]quinoline derivatives as a novel chemotype for dual antileishmanial-antimalarial activity graced with antitubercular activity: Design, synthesis and biological evaluation” (Eur J Med Chem, 2023).

In the experiment the test system is Mycobacterium tuberculosis. The experiment can be described thus: Antitubercular activity against multidrug-resistant Mycobacterium tuberculosis ATCC 35822 assessed as inhibition of bacterial growth by microplate alamar blue assay. Format: functional. (In general: The colour change of resazurin is a common sign of viable cells or microbes.)

Values after ≈ are worked out from the molar mass of the structure shown.

In general, MIC refers to the smallest concentration in the dilution series that meets the test's criterion for growth inhibition. In the case of `N#Cc1c(-c2ccc(Cl)cc2Cl)c2c([nH]c1=O)-c1ccccc1CC2`, the MIC is 85.4 µM (≈ 31.4 µg/mL).

Consider `COc1ccc(OC)c(-c2c3c([nH]c(=O)c2C#N)-c2ccccc2CC3)c1`, for which the MIC was 21.8 µM (≈ 7.82 µg/mL).

As for `COc1ccc(-c2c3c([nH]c(=O)c2C#N)-c2ccccc2CC3)cc1O`, the MIC turned out to be 45.4 µM (≈ 15.6 µg/mL).

On to `COc1ccccc1-c1c2c([nH]c(=O)c1C#N)-c1ccccc1CC2`, for which the MIC turned out to be 11.9 µM (≈ 3.9 µg/mL).

In the case of `N#Cc1c(O)nc2c(c1-c1cccc([N+](=O)[O-])c1)CCc1ccccc1-2`, the MIC came out at 22.8 µM (≈ 7.82 µg/mL).
